Assay results as given in patent publication US9440914B2, “Method for treating glioblastomas and other tumors” (THE FEINSTEIN INSTITUTE FOR MEDICAL RESEARCH, priority 2013, dated 2016).

Tests used:
[1] = test system: GL261 tumors; assay: orthotopic GL261 glioblastoma model in syngeneic C57Bl/6 mice, intracranial delivery by osmotic pump; format: in vivo, C57BL/6J mice
Protocol: Animal Experiments: All procedures involving mice were conducted in accordance with the National Institutes of Health regulations concerning the use and care of experimental animals. The study of mice was approved by the Institutional Animal Care and Use Committee (IACUC) of the Feinstein Institute. First, 8 week old male C57BL/6J mice were inoculated in the right caudate putamen with GL261 cells. Briefly, animals were placed in a stereotactic frame after pre-anesthesia exposure in a box of 5% isoflurane. Deep anesthesia was maintained on the frame at approximately 2% isoflurane and 2% O2. A burr hole was drilled 1 mm anterior and 2.5 mm to the right of the bregma. With the aid of the stereotactic frame, GL261 cells (2×10^4 cells suspended in 1 μL) were injected with a Hamilton syringe at a depth of 3 mm over a one min time period. Subsequently, the syringe was left in place for 1 min to prevent reflux.
Seven days after implantation of the GL261 cells, an osmotic pump (Alzet, Durect) filled with either 0.42 mg/ml solution of semapimod or vehicle was implanted in a subcutaneous pocket on the dorsal flank of the animal. A catheter with attached cannula delivered the drug intracranially over a period of 2 weeks, at a steady rate of 0.25 μl/h, which is equivalent to a dose of […], assuming no blood-brain barrier permeability of the drug. Starting one day after pump implantation, animals were given 2 Gy whole brain irradiation every other day over a period of 10 days (10 Gy total).
Brains from mice-bearing tumors were frozen on dry ice and stored at −80° C. until processing. The brain was sliced using a cryostat at −20° C. at a thickness of 40 μm (for tumor sizing) or 8 μm for immunohistochemistry. Slices were placed on pre-coated poly-1-lysine slides (Superfrost, Fisher) and fixed in 3.7% formaldehyde in PBS. Sections were stained with Harris-modified haematoxilin solution. Activated microglia were visualized with an Iba1 antibody (Wako). Tumor cell invasion was determined by counting the number of Ki67 (Millipore) positive nuclei located beyond the tumor border. The border was outlined by determining where the bulk of the tumor material was found by Ki67 staining Tumor size was determined as the area of the largest cross section of the tumor, multiplied by the depth of the tumor.
The cell density of the tumor was calculated by counting the total number of cells in 10 fields taken over different sections and multiplying the tumor area by the thickness of the slice (8 μm) to obtain total number of cells in a tumor section. This was then divided by the volume of the tumor section to obtain the number of cells per unit volume. To obtain the total number of cells in a tumor, the cell density was multiplied by the calculated volume of the tumor.
Animals were inoculated with 2×10^4 GL261 cells into the right caudate putamen. To deliver semapimod, an osmotic pump was used that was implanted subcutaneously in the dorsal flank of the animal and fed a transcranial cannula that was inserted into the tumor. In order to mimic a therapeutic setting, tumors were allowed to develop for 1 week before the onset of treatment. To score tumor cell invasion, brain sections were probed for the presence of proliferative antigen Ki67. […] Whereas control tumors display diffuse edges and extensive tumor cell invasion into the surrounding parenchyma, semapimod-treated tumors have a sharply demarcated border (FIG. 4A).

[2] = test system: GL261 cells; assay: colony formation assay of GL261 with or without microglia and irradiation; format: cell-based, murine; conditions: 200 nM; for effect on microglia-stimulated GL261 survival (colony formation): co-culture with microglia
Protocol: Colony Formation Assay: G1261 cells and microglia were labeled as described for the invasion assay and were co-cultured in serum overnight and then changed to serum free medium for 48 h in the absence of serum at a 1:1 ratio at a density of 5×10^5 per well of a 6-well plate in the presence or absence of 200 nM semapimod. Subsequently, cells were subjected to 3 Gy of X-ray irradiation using a Radionics 160 kV irradiator. Two days after irradiation, cells were trypsinized, counted using a fluorescence microscope and 500 GL261 cells were plated in 6 cm dishes containing 10% FBS MSFM medium. Colony formation was allowed to proceed for 12 days, with medium changes every other day. Subsequently, the cells were fixed in 3.7% formaldehyde in PBS and stained with 0.2% (w/v) sulpharhodamine B (SRB) dye in 1% acetic acid for 20 min. The dishes were washed with 1% glacial acetic acid and allowed to dry. Plates were scanned and processed using Photoshop 5 (Adobe). Images were changed to grayscale and background threshold intensity was set. Colonies were counted automatically by Image J (rsbweb.nih.gov/ij/) and the numbers graphed.
Semapimod inhibits microglia-stimulated glioblastoma cell survival: A critical problem of malignant glioblastoma is its strong resistance to ionizing radiation (IR) and other therapeutic modalities (21). The role of microglia in glioblastoma cell survival has not been studied thus far. It was therefore examined whether microglia can enhance the survival of GL216 cells after IR and whether semapimod interferes with this function. GL261 cells were plated either in the presence or absence of microglia with or without semapimod (200 nM) for 2 days, followed by radiation treatment (3 Gy). Two days later, glioblastoma cell viability was assayed using a standard colony formation assay. […] In the presence of radiation, the stimulatory effect of microglia on glioblastoma cell survival is more marked (50%) and this effect is also abolished by semapimod (FIG. 2B).

[3] = test system: GL261 murine glioblastoma cells co-cultured with microglia; assay: 3-dimensional microglia-glioblastoma co-culture transwell invasion assay (microglia-stimulated GL261 invasion); format: cell-based; conditions: 3:1 glioblastoma cells to microglia, BME, no serum, 48 h; read-out: IC50 for interference with microglia-stimulated GL261 invasion
Protocol: Invasion Assays: Glioblastoma and microglial cells were labelled with cell tracker green CMFDA and with cell tracker red CMTPX, respectively, and then embedded in 50 μL of 10 mg/mL basement membrane extract (BME) (Trevigen). The mixture was then placed in a transwell insert (previously coated with 1 μg/mL fibronectin on the bottom side of the 8 μm filter to maintain adhesion of the cells that invaded through the filter) and allowed to polymerize for 30 min at 37° C. Subsequently, serum free medium was added to both wells. To maintain constant cell numbers, cells were plated at a density per invasion chamber of 15×10^4 GL261 cells and 5×10^4 microglia cells in MSFM. Semapimod or its diluent was added at varying concentrations into the BME and in the media above and below the transwell. Invasion chambers were incubated for 48 h and subsequently fixed in 3.7% formaldehyde in phosphate-buffered saline (PBS). The gel in the transwell inserts was carefully removed. Invaded glioblastoma cells were imaged with a Zeiss Axiovision inverted microscope and a 10× objective. All invaded cells were counted.
To determine the effect of microglia on the invasive properties of glioblastoma cells, a novel 3-dimensional microglia-glioblastoma co-culture assay was designed that provides a better approximation of the in vivo setting than a 2-dimensional configuration. […]

[4] = two weeks after tumor cell inoculation

SMILES: C/C(=N\NC(=N)N)c1cc(NC(=O)CCCCCCCCC(=O)Nc2cc(/C(C)=N/NC(=N)N)cc(/C(C)=N/NC(=N)N)c2)cc(/C(C)=N/NC(=N)N)c1 [semapimod]
- median survival ([1]; absence of radiation, controls 20 days, not significant): 22 days
- number of Iba1+ microglia per tumor area ([1]; equivalent to 6 mg/kg/day intracranially, 1 week): No significant difference
- inhibition of tumor cell invasion in vivo (Ki67-positive cells beyond tumor border) ([1]; equivalent to 6 mg/kg/day intracranially, 1 week, start 7 days after inoculation): more than 75%
- tumor cell density [1, 4]: small but significant increase
- tumor size (volume) [1, 4]: robust inhibition
- estimated total number of cells in tumor ([1]; two weeks after tumor cell inoculation, versus control tumors): significantly less
- tumors by histological analysis in surviving animals ([1]; with 10 Gy fractionated whole brain irradiation): no detectable tumors
- survival beyond the median survival time of control animals ([1]; with 10 Gy fractionated whole brain irradiation, most of the animals): at least 40 days
- effect on microglia-stimulated GL261 survival (colony formation) ([2]; 3 Gy radiation): abolished
- effect on microglia-stimulated GL261 survival (colony formation) ([2]; absence of radiation): abolishes
- effect on survival potential of glioblastoma cell monocultures ([2]; no microglia): does not affect
- IC50 [3]: < 50 nM
